Reference: ChEMBL document CHEMBL4265942, “Four new antitumor metabolites isolated from a mutant 3-f-31 strain derived from Penicillium purpurogenum G59” (Eur J Med Chem, 2018)

Assays:
K562 [1] = experiment: Antiproliferative activity against human K562 cells assessed as inhibition of cell growth after 72 hrs by MTT assay; format: functional, cell-based; conditions: K562, 72 h
HCT-116 [2] = experiment: Antiproliferative activity against human HCT116 cells assessed as inhibition of cell growth after 72 hrs by sulforhodamine B assay; format: functional, cell-based; conditions: HCT-116, 72 h
HT-29 [3] = experiment: Antiproliferative activity against human HT-29 cells assessed as inhibition of cell growth after 72 hrs by sulforhodamine B assay; format: functional, cell-based; conditions: HT-29, 72 h
HeLa [4] = experiment: Antiproliferative activity against human HeLa cells assessed as inhibition of cell growth after 72 hrs by sulforhodamine B assay; format: functional, cell-based
L929 = experiment: Cytotoxicity against mouse L929 cells assessed as inhibition of cell growth after 72 hrs by MTT assay; format: cell-based; conditions: L929, 72 h
NCI-H1975 [5] = experiment: Antiproliferative activity against human NCI-H1975 cells assessed as inhibition of cell growth after 72 hrs by sulforhodamine B assay; format: functional, cell-based; conditions: NCI-H1975, 72 h
MCF7 [6] = experiment: Antiproliferative activity against human MCF7 cells assessed as inhibition of cell growth after 72 hrs by sulforhodamine B assay; format: functional, cell-based; conditions: MCF7, 72 h
A549 [7] = experiment: Antiproliferative activity against human A549 cells assessed as inhibition of cell growth after 72 hrs by sulforhodamine B assay; format: functional, cell-based; conditions: A549, 72 h
PANC-1 [8] = experiment: Antiproliferative activity against human PANC1 cells assessed as inhibition of cell growth after 72 hrs by sulforhodamine B assay; format: functional, cell-based; conditions: PANC-1, 72 h
HL-60 [9] = experiment: Antiproliferative activity against human HL60 cells assessed as inhibition of cell growth after 72 hrs by MTT assay; format: functional, cell-based; conditions: HL-60, 72 h
LS180 [10] = experiment: Antiproliferative activity against human LS180 cells assessed as inhibition of cell growth after 72 hrs by sulforhodamine B assay; format: functional, cell-based; conditions: LS180, 72 h
HepG2 [11] = experiment: Antiproliferative activity against human HepG2 cells assessed as inhibition of cell growth after 72 hrs by sulforhodamine B assay; format: functional, cell-based; conditions: HepG2, 72 h
PC-3 [12] = experiment: Antiproliferative activity against human PC3 cells assessed as inhibition of cell growth after 72 hrs by sulforhodamine B assay; format: functional, cell-based; conditions: PC-3, 72 h
SW480 [13] = experiment: Antiproliferative activity against human SW480 cells assessed as inhibition of cell growth after 72 hrs by sulforhodamine B assay; format: functional, cell-based; conditions: SW480, 72 h
BXPC-3 [14] = experiment: Antiproliferative activity against human BxPC3 cells assessed as inhibition of cell growth after 72 hrs by sulforhodamine B assay; format: functional, cell-based; conditions: BXPC-3, 72 h
PC-3 [15] = experiment: Antiproliferative activity against human PC3 cells assessed as inhibition of cell growth at 100 uM after 72 hrs by sulforhodamine B assay relative to control; format: functional; conditions: PC-3, 72 h
HepG2 [16] = experiment: Antiproliferative activity against human HepG2 cells assessed as inhibition of cell growth at 100 uM after 72 hrs by sulforhodamine B assay relative to control; format: functional; conditions: HepG2, 72 h
NCI-H1975 [17] = experiment: Antiproliferative activity against human NCI-H1975 cells assessed as inhibition of cell growth at 100 uM after 72 hrs by sulforhodamine B assay relative to control; format: functional; conditions: NCI-H1975, 72 h
MCF7 [18] = experiment: Antiproliferative activity against human MCF7 cells assessed as inhibition of cell growth at 100 uM after 72 hrs by sulforhodamine B assay relative to control; format: functional; conditions: MCF7, 72 h
HT-29 [19] = experiment: Antiproliferative activity against human HT-29 cells assessed as inhibition of cell growth at 100 uM after 72 hrs by sulforhodamine B assay relative to control; format: functional; conditions: HT-29, 72 h
LS180 [20] = experiment: Antiproliferative activity against human LS180 cells assessed as inhibition of cell growth at 100 uM after 72 hrs by sulforhodamine B assay relative to control; format: functional; conditions: LS180, 72 h
HCT-116 [21] = experiment: Antiproliferative activity against human HCT116 cells assessed as inhibition of cell growth at 100 uM after 72 hrs by sulforhodamine B assay relative to control; format: functional; conditions: HCT-116, 72 h
HeLa [22] = experiment: Antiproliferative activity against human HeLa cells assessed as inhibition of cell growth at 100 uM after 72 hrs by sulforhodamine B assay relative to control; format: functional
HL-60 [23] = experiment: Antiproliferative activity against human HL60 cells assessed as inhibition of cell growth at 100 uM after 72 hrs by MTT assay relative to control; format: functional; conditions: HL-60, 72 h
PANC-1 [24] = experiment: Antiproliferative activity against human PANC1 cells assessed as inhibition of cell growth at 100 uM after 72 hrs by sulforhodamine B assay relative to control; format: functional; conditions: PANC-1, 72 h
K562 [25] = experiment: Antiproliferative activity against human K562 cells assessed as inhibition of cell growth at 100 uM after 72 hrs by MTT assay relative to control; format: functional; conditions: K562, 72 h
A549 [26] = experiment: Antiproliferative activity against human A549 cells assessed as inhibition of cell growth at 100 uM after 72 hrs by sulforhodamine B assay relative to control; format: functional; conditions: A549, 72 h
BXPC-3 [27] = experiment: Antiproliferative activity against human BxPC3 cells assessed as inhibition of cell growth at 100 uM after 72 hrs by sulforhodamine B assay relative to control; format: functional; conditions: BXPC-3, 72 h
SW480 [28] = experiment: Antiproliferative activity against human SW480 cells assessed as inhibition of cell growth at 100 uM after 72 hrs by sulforhodamine B assay relative to control; format: functional; conditions: SW480, 72 h
HCT-116 [29] = experiment: Down regulation of phosphorylated STAT3 expression in human HCT116 cells after 48 hrs by Western blot analysis; format: functional, cell-based
HCT-116 [30] = experiment: Down regulation of survivin expression in human HCT116 cells after 48 hrs by Western blot analysis; format: functional, cell-based
HCT-116 [31] = experiment: Down regulation of AKT expression in human HCT116 cells after 48 hrs by Western blot analysis; format: functional, cell-based
HCT-116 [32] = experiment: Down regulation of STAT3 expression in human HCT116 cells after 48 hrs by Western blot analysis; format: functional, cell-based
HCT-116 [33] = experiment: Down regulation of HSP90 expression in human HCT116 cells after 48 hrs by Western blot analysis; format: functional, cell-based
HCT-116 [34] = experiment: Down regulation of ERK1/2 expression in human HCT116 cells after 48 hrs by Western blot analysis; format: functional, cell-based
HCT-116 [35] = experiment: Down regulation of Raf1 expression in human HCT116 cells after 48 hrs by Western blot analysis; format: functional, cell-based

Compound	IC50 (K562 [1]) [µM]	IC50 (HCT-116 [2]) [nM]	IC50 (HT-29 [3]) [µM]	IC50 (HeLa [4]) [µM]	IC50 (L929) [µM]	IC50 (NCI-H1975 [5]) [µM]	IC50 (MCF7 [6]) [µM]	IC50 (A549 [7]) [µM]	IC50 (PANC-1 [8]) [µM]	IC50 (HL-60 [9]) [µM]	IC50 (LS180 [10]) [µM]	IC50 (HepG2 [11]) [µM]	IC50 (PC-3 [12]) [µM]	IC50 (SW480 [13]) [µM]	IC50 (BXPC-3 [14]) [µM]	further results
CCCCCC[C@@H](C)C[C@@H](C)/C=C/C(N)=O	62.5	> 100000	85.4	78.3	13.5	53.9	60.6	59.4	82.6	51.5	64.5	78.3	> 100	55	67.7	
O=c1[nH]cc(F)c(=O)[nH]1 [FLUOROURACIL]																inhibition at 100 µM (PC-3 [15]): 41 to 95%; inhibition at 100 µM (HepG2 [16]): 41 to 95%; inhibition at 100 µM (NCI-H1975 [17]): 41 to 95%; inhibition at 100 µM (MCF7 [18]): 41 to 95%; inhibition at 100 µM (HT-29 [19]): 41 to 95%; inhibition at 100 µM (LS180 [20]): 41 to 95%; inhibition at 100 µM (HCT-116 [21]): 41 to 95%; inhibition at 100 µM (HeLa [22]): 41 to 95%; inhibition at 100 µM (HL-60 [23]): 41 to 95%; inhibition at 100 µM (PANC-1 [24]): 41 to 95%; inhibition at 100 µM (K562 [25]): 41 to 95%; inhibition at 100 µM (A549 [26]): 41 to 95%; inhibition at 100 µM (BXPC-3 [27]): 41 to 95%; inhibition at 100 µM (SW480 [28]): 41 to 95%
CCCCCC[C@@H](C)C[C@@H](C)/C=C/C(=O)N[C@@H]1C[C@@]2(O[C@@H]1O)[C@@H]1O[C@@H]1[C@](O)(CC(C)=O)[C@@H]1O[C@@H]12	5.16	2540	10.2	6.25	4.68	3.37	4.11	9.83	4.42	3.13	17	6.58	7.6	3.57	7.3	Activity (HCT-116 [29]): Dose-dependent effect; Activity (HCT-116 [30]): Dose-dependent effect; Activity (HCT-116 [31]): Dose-dependent effect; Activity (HCT-116 [32]): Dose-dependent effect; Activity (HCT-116 [33]): Dose-dependent effect; Activity (HCT-116 [34]): Dose-dependent effect; Activity (HCT-116 [35]): Dose-dependent effect
